Results as given in the supplement of paper PMC10307832.

These cell lines were tested with CC(C)C[C@@H](C(=O)N[C@H](C(=O)OC1CCCC1)c1ccccc1)[C@H](O)C(=O)NO [Tosedostat] + CC1(C)CCC(c2ccc(Cl)cc2)=C(CN2CCN(c3ccc(C(=O)NS(=O)(=O)c4ccc(N[C@H](CCN5CCOCC5)CSc5ccccc5)c(S(=O)(=O)C(F)(F)F)c4)cc3)CC2)C1 [Navitoclax] (partner 0.5 µM) (assay: relative viability (nuclei count vs DMSO), 5 days (fraction); higher = more cells survive). Conditions: first compound 0.02 µM.
Method in brief: (§1)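 Medians of duplicate plates are given as relative viability. That measure is the nuclei count in treated wells divided by the count in vehicle wells. Counts were taken on 4× images of lung cancer cell lines in 1536-well plates, 5 days after pin-tool dosing the day after seeding with one drug alone or a fixed anchor-drug dose plus five library-drug doses (not always all listed) in √10 steps.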

Cell Line | relative viability
SK-LU-1 | 0.889
NCI-H1703 | 0.89
EBC-1 | 0.42
NCI-H1792 | 0.63
NCI-H2087 | 0.995
NCI-H596 | 1.01
NCI-H1355 | 0.766
SW 1573 | 1.06
NCI-H727 | 0.369
NCI-H2405 | 1.18
EMC-BAC-2 | 1.11
NCI-H23 | 0.765
Calu-6 | 0.919
HCC-366 | 1.15
NCI-H1755 | 1.05
NCI-H838 | 1.23
LK-2 | 0.905
NCI-H2347 | 0.671
SK-MES-1 | 1.23
H3255 | 0.464
COR-L23 | 1.2
COR-L 105 | 0.673
IA-LM | 0.731
LU99A | 0.813
ChaGo-K-1 | 1.23
NCI-H2170 | 0.654
HCC-44 | 0.849
A549 | 1.37
NCI-H1299 | 1.09

Same assay, conditions: first compound 0.06325 µM

Cell Line | relative viability
SK-LU-1 | 0.854
NCI-H1703 | 0.945
EBC-1 | 0.473
NCI-H1792 | 0.839
NCI-H2087 | 0.916
NCI-H596 | 1.06
NCI-H1355 | 0.795
SW 1573 | 1.05
NCI-H727 | 0.295
NCI-H2405 | 0.846
EMC-BAC-2 | 1.2
NCI-H23 | 0.872
Calu-6 | 0.787
HCC-366 | 1.01
NCI-H1755 | 1.05
NCI-H838 | 1.16
LK-2 | 0.855
NCI-H2347 | 0.8
SK-MES-1 | 1.29
H3255 | 0.546
COR-L23 | 1.04
COR-L 105 | 0.624
IA-LM | 0.655
LU99A | 0.869
ChaGo-K-1 | 1.1
NCI-H2170 | 0.586
HCC-44 | 0.912
A549 | 1.15
NCI-H1299 | 1.03

Same assay, conditions: first compound 0.2 µM

Cell Line | relative viability
SK-LU-1 | 0.939
NCI-H1703 | 0.898
EBC-1 | 0.423
NCI-H1792 | 0.651
NCI-H2087 | 1
NCI-H596 | 1.01
NCI-H1355 | 1.05
SW 1573 | 1.06
NCI-H727 | 0.386
NCI-H2405 | 0.82
EMC-BAC-2 | 1.15
NCI-H23 | 0.885
Calu-6 | 0.655
HCC-366 | 1.02
NCI-H1755 | 1.01
NCI-H838 | 1.2
LK-2 | 0.788
NCI-H2347 | 0.766
SK-MES-1 | 1.29
H3255 | 0.404
COR-L23 | 1.04
COR-L 105 | 0.707
IA-LM | 0.875
LU99A | 0.774
ChaGo-K-1 | 0.905
NCI-H2170 | 0.572
HCC-44 | 0.949
A549 | 1.14
NCI-H1299 | 1.04

Same assay, conditions: first compound 0.6325 µM

Cell Line | relative viability
SK-LU-1 | 0.608
NCI-H1703 | 0.635
EBC-1 | 0.356
NCI-H1792 | 0.652
NCI-H2087 | 0.931
NCI-H596 | 0.996
NCI-H1355 | 0.979
SW 1573 | 0.796
NCI-H727 | 0.282
NCI-H2405 | 0.812
EMC-BAC-2 | 1.14
NCI-H23 | 0.57
Calu-6 | 0.668
HCC-366 | 1.01
NCI-H1755 | 0.931
NCI-H838 | 1.33
LK-2 | 0.909
NCI-H2347 | 0.688
SK-MES-1 | 1.11
H3255 | 0.388
COR-L23 | 0.884
COR-L 105 | 0.722
IA-LM | 0.585
LU99A | 0.832
ChaGo-K-1 | 1.01
NCI-H2170 | 0.533
HCC-44 | 0.946
A549 | 1.19
NCI-H1299 | 1.02

Same assay, conditions: first compound 2 µM

Cell Line | relative viability
SK-LU-1 | 0.771
NCI-H1703 | 0.691
EBC-1 | 0.305
NCI-H1792 | 0.567
NCI-H2087 | 0.805
NCI-H596 | 0.805
NCI-H1355 | 0.803
SW 1573 | 0.959
NCI-H727 | 0.195
NCI-H2405 | 0.611
EMC-BAC-2 | 1.19
NCI-H23 | 0.528
Calu-6 | 0.461
HCC-366 | 1.11
NCI-H1755 | 0.958
NCI-H838 | 1.46
LK-2 | 0.976
NCI-H2347 | 0.68
SK-MES-1 | 1
H3255 | 0.471
COR-L23 | 0.958
COR-L 105 | 0.512
IA-LM | 0.603
LU99A | 0.683
ChaGo-K-1 | 0.761
NCI-H2170 | 0.63
HCC-44 | 0.539
A549 | 1.01
NCI-H1299 | 0.948

What follows are cell lines tested with CC1=NN=C(O1)C2=NN=C(C=C2)N3CCC(CC3)OC4=C(C=CC(=C4)F)Cl + CC1(C)CCC(c2ccc(Cl)cc2)=C(CN2CCN(c3ccc(C(=O)NS(=O)(=O)c4ccc(N[C@H](CCN5CCOCC5)CSc5ccccc5)c(S(=O)(=O)C(F)(F)F)c4)cc3)CC2)C1 [Navitoclax] (partner 0.5 µM) in the same assay as above. Conditions: first compound 0.253 µM.
Method in brief: as §1

Cell Line | relative viability
SK-LU-1 | 0.765
NCI-H1703 | 0.9
EBC-1 | 0.352
NCI-H1792 | 0.4
NCI-H2087 | 0.701
SW 1573 | 1.03
NCI-H727 | 0.479
NCI-H2405 | 0.902
EMC-BAC-2 | 0.998
NCI-H23 | 0.808
Calu-6 | 0.667
HCC-366 | 0.445
NCI-H1755 | 0.615
NCI-H838 | 0.959
LK-2 | 0.873
NCI-H2347 | 0.643
SK-MES-1 | 0.995
H3255 | 0.494
COR-L23 | 0.815
COR-L 105 | 0.686
IA-LM | 0.131
LU99A | 0.836
ChaGo-K-1 | 0.678
NCI-H2170 | 0.464
HCC-44 | 0.424
A549 | 0.778
NCI-H1299 | 0.895

Same assay, conditions: first compound 0.8 µM

Cell Line | relative viability
SK-LU-1 | 0.957
NCI-H1703 | 0.987
EBC-1 | 0.375
NCI-H1792 | 0.409
NCI-H2087 | 0.713
NCI-H596 | 0.756
SW 1573 | 0.84
NCI-H727 | 0.36
NCI-H2405 | 0.722
EMC-BAC-2 | 0.909
Calu-6 | 0.673
HCC-366 | 0.387
NCI-H1755 | 0.682
NCI-H838 | 0.954
LK-2 | 0.928
NCI-H2347 | 0.533
SK-MES-1 | 1.04
H3255 | 0.422
COR-L23 | 0.729
COR-L 105 | 0.846
IA-LM | 0.137
LU99A | 0.723
ChaGo-K-1 | 0.624
NCI-H2170 | 0.421
HCC-44 | 0.476
A549 | 0.652
NCI-H1299 | 0.932

Same assay, conditions: first compound 2.53 µM

Cell Line | relative viability
SK-LU-1 | 0.706
NCI-H1703 | 0.783
EBC-1 | 0.26
NCI-H1792 | 0.409
NCI-H2087 | 0.724
NCI-H596 | 0.894
NCI-H1355 | 0.947
SW 1573 | 0.851
NCI-H727 | 0.368
NCI-H2405 | 0.784
EMC-BAC-2 | 1.03
NCI-H23 | 0.71
Calu-6 | 0.651
HCC-366 | 0.423
NCI-H1755 | 0.676
NCI-H838 | 1.05
LK-2 | 0.808
NCI-H2347 | 0.62
SK-MES-1 | 1.03
H3255 | 0.524
COR-L23 | 0.789
COR-L 105 | 0.622
IA-LM | 0.127
LU99A | 0.858
ChaGo-K-1 | 0.632
NCI-H2170 | 0.556
HCC-44 | 0.477
A549 | 0.599
NCI-H1299 | 0.894

Same assay, conditions: first compound 8 µM

Cell Line | relative viability
SK-LU-1 | 0.531
NCI-H1703 | 0.71
EBC-1 | 0.276
NCI-H1792 | 0.482
NCI-H2087 | 0.63
NCI-H596 | 0.723
NCI-H1355 | 0.763
SW 1573 | 0.922
NCI-H727 | 0.262
NCI-H2405 | 0.83
EMC-BAC-2 | 0.936
NCI-H23 | 0.722
Calu-6 | 0.612
HCC-366 | 0.364
NCI-H1755 | 0.655
NCI-H838 | 0.979
LK-2 | 0.915
NCI-H2347 | 0.532
SK-MES-1 | 0.929
H3255 | 0.39
COR-L23 | 0.629
COR-L 105 | 0.727
IA-LM | 0.12
LU99A | 0.582
ChaGo-K-1 | 0.622
NCI-H2170 | 0.417
HCC-44 | 0.447
A549 | 0.587
NCI-H1299 | 0.835

Each cell line was assayed with CC1=NN=C(O1)C2=NN=C(C=C2)N3CCC(CC3)OC4=C(C=CC(=C4)F)Cl + COc1cc2c(Oc3ccc(NC(=O)C4(C(=O)Nc5ccc(F)cc5)CC4)cc3F)ccnc2cc1OCCCN1CCOCC1 [Foretinib] (partner 0.25 µM) in the same assay as above. Conditions: first compound 0.253 µM.
Method in brief: as §1

Cell Line | relative viability
NCI-H1623 | 0.717
SK-LU-1 | 0.698
